Consider two molecules from patent US10144730B2, “Inhibitors of c-Jun-N-terminal kinase (JNK)” (Dana-Farber Cancer Institute, Inc., priority 2011, dated 2018).

Entries after “also recorded” stand apart in the source; their conditions may differ. Some results are limits rather than exact numbers.

The target in one experiment is JNK3 (Homo sapiens, UniProt P53779). Briefly: Biochemical JNK3 kinase inhibition (Z'-lyte format).
Experiment [1] relates to c-Jun phosphorylation. Nature of the experiment: LanthaScreen TR-FRET cell assay for c-Jun phosphorylation in HeLa cells. Format: cell-based. Conditions: for EC50: Homo sapiens, Hela cells, TNF-α stimulation, read-out: p-c-Jun EC50 (nM) Hela. As for the experimental part:
Phosphorylation was determined by measuring the time resolved FRET (TR-FRET) between a terbium labeled phospho-c-Jun specific antibody and GFP. The cells were plated in white tissue culture treated 384 well plates at a density of 10,000 cell per well in 32 μL assay medium (Opti-MEM®, supplemented with 0.5% charcoal/dextran-treated FBS, 100 U/ml penicillin and 100 μg/ml streptomycin, 0.1 mM nonessential amino acids, 1 mM sodium pyruvate, 25 mM Hepes, pH 7.3, and lacking phenol red). After overnight incubation, cells were pretreated for 90 minutes with compound (at indicated concentration) diluted in 4 μL assay buffer followed by 30 min of stimulation with 5 ng/ml of TNF-α in 4 μL assay buffer (final assay volume was 40 μl). The medium was then removed by aspiration, and the cells were lysed by adding 20 μl of lysis buffer (20 mM Tris-HCl, pH 7.6, 5 mM EDTA, 1% Nonidet P-40 substitute, 5 mM NaF, 150 mM NaCl, and 1:100 protease and phosphatase inhibitor mix, SIGMA P8340 and P2850, respectively). The lysis buffer included 2 nM of the terbium-labeled anti-c-Jun (pSer73) detection antibodies (Life Technologies). After allowing the assay to equilibrate for 60 minutes at room temperature, TR-FRET emission ratios were determined on a BMG Pherastar fluorescence plate reader (BMG Labtech, Cary, N.C.) using the following parameters: excitation at 340 nm; emission at 520 nm and 490 nm; 100 μs lag time; 200 μs integration time; and emission ratio=Em520/Em490. All data were analyzed and plotted using Graphpad Prism 4.
(§1) In parallel with biochemical evaluation, the ability of the compounds to inhibit JNK activity in cells was investigated using two independent assays formats. This is a critical issue because there are several reported JNK inhibitors with nanomolar biochemical potency that translate into micromolar cellular inhibitors. The most well characterized direct phosphorylation substrate of JNK is the transcription factor c-Jun.
In general terms: Time-resolved FRET reads energy transfer from a long-lived donor to a nearby acceptor.

Experiment [2] concerns c-Jun phosphorylation. Nature of the experiment: High throughput microscopy of c-Jun phosphorylation in A375 cells. Format: cell-based. The settings on record: Homo sapiens, A-375; A375 cells, anisomycin stimulation; read-out: p-c-Jun EC50 (nM) A375. As to the method: (§2) Cells were fixed in 2% paraformaldehyde for 10 min at room temperature and washed with PBS-T (Phosphate Buffered Saline, 0.1% Tween 20). Cells were permeabilized in methanol for 10 min at room temperature, washed with PBS-T, and blocked in Odyssey Blocking Buffer (LI-COR Biosciences) for 1 hour at room temperature. Cells were incubated overnight at 4° C. with antibody specific for Erk1/2(pT202/pY204), Akt(pS473), c-Jun(pS73), pP38(T180/Y182) and pSTAT3(Y705) (Cell Signaling Technology), pRSK1(S380) and pMSK1(S376) (Epitomics), and NF-κB (Santa Cruz Biotechnology) diluted 1:400 in Odyssey Blocking Buffer. […] Cells were washed twice with PBS and imaged in an imageWoRx high-throughput microscope (Applied Precision). Data were plotted using DataPflex.
as §1

The test system of the next experiment is JNK. Briefly: Binding kinetics (pulse-chase) assay, ATP-biotin labeling of JNK in A375 cells. Format: cell-based. The settings on record: 1 μM compound. As to the method:
A375 cells were incubated with inhibitors for the indicated amount of time after which cell lysates were prepared and labeled with ATP-biotin. Biotinylated proteins were pulled down with streptavidin beads and material bound to the beads was eluted and separate by SDS-PAGE followed by Western blot analysis for JNK.
A375 cells (ATCC® CRL-1619™) were pre-treated with 1 μM compound for the indicated amounts of time. Remove the medium and wash 3 times with PBS. Resuspend the cell pellet with 1 mL Lysis Buffer (1% NP-40, 1% CHAPS, 25 mM Tris, 150 mM NaCl, Phosphatase Inhibitor Cocktail, Roche 04906845001, and Protease Inhibitor Cocktail Roche 11836170001). Rotate end-to-end for 30 min at 4° C. Lysates were cleared by centrifugation at 14000 rpm for 15 min in the Eppendorf. The cleared lysates gel filtered into Kinase Buffer (0.1% NP-40, 20 mM HEPES, 150 mM NaCl, Phosphatase Inhibitor Cocktail, and Protease Inhibitor Cocktail) using Bio-Rad 10DG colums. The total protein concentration of the gel-filtered lysate should be around 5-15 mg/ml. […]
In order to evaluate the kinetics with which JNK-IN-5 could covalently modify JNK in cells, a pulse-chase assay was developed . […] Streptavidin affinity chromatography is then used to isolate all biotinylated proteins and JNK protein is detected following SDS-PAGE and Western blotting (FIG. 8). […]

The subject of experiment [3] is 260 kinases in A375 cells. Nature of the experiment: KiNativ cellular kinase selectivity profiling in A375 cells. The settings on record: 1 μM, 3 hours. Format: cell-based. As to the method:
FIG. 9 illustrates the cellular kinase selectivity as assessed using the KiNativ™ technology.
The kinase selectivity of several key compounds was first evaluated using a chemical proteomic approach named KiNativ which detects 260 kinases in A375 cells (ActivX Biosciences). To probe the intracellular targets of the compounds, A375 cells were incubated with the inhibitors and then looked for protection of labeling by an ATP-biotin probe that non-specifically labels conserved lysines on kinases and other nucleotide-dependent enzymes. This provided an important advantage relative to the in vitro kinase selectivity profiling because in vitro the short incubation times and presence of reactive thiols in the buffers can potentially cause false negatives for acrylamide-modified kinase inhibitors. […] Since cysteine-directed covalent kinase inhibitors will sometimes cross-react with kinases that contain an equivalently placed cysteine, a sequence alignment was performed to identify all kinases which have a cysteine near JNK1 Cys116 (FIG. 10). […] The dramatic selectivity improvement that results from introduction of this flag-methyl group has been previously reported for imatinib (Zimmermann et al., 1996).

The target in another experiment is JNK1 (Homo sapiens, UniProt P45983). Briefly: Biochemical JNK1 kinase inhibition (Z'-lyte format). The settings on record: Table 2.
Chain of JNK1 (P45983 whole entry): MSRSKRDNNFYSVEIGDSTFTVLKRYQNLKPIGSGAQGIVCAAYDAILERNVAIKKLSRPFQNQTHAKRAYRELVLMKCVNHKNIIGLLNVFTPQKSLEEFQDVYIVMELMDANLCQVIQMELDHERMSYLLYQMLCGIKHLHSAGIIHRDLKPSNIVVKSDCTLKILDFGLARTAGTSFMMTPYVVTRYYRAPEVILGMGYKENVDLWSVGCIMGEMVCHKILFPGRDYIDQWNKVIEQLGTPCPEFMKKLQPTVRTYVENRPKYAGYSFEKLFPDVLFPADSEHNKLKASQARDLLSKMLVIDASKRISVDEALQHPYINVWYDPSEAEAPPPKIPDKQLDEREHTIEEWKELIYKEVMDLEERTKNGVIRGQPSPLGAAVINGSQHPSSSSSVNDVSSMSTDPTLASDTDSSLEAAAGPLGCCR
The subject of experiment [4] is NF-kB nuclear translocation. Briefly: High-throughput microscopy, NF-kB nuclear translocation. The settings on record: Homo sapiens, A-375, A375 cells, TNF-α stimulation, read-out: Cellular EC50 NF-kB. Format: cell-based. As for the experimental part: (§3) A375 cells were stimulated with anisomycin (FIGS. 14A and 14C to 14F), IGF-1 (FIG. 14B), IL-6 (FIG. 14G), and TNF-α (FIG. 14H) for sixty minutes. The output of multiple signaling pathways was measured using high throughput microscopy at multiple concentrations of four JNK inhibitors and a control compound specific to each pathway DMSO (FIG. 14A), MK2206 (allosteric Akt inhibitor, Haoyuan Chemexpress Co., Limited. Hirai, et al., 2010) (FIG. 14B), PD0325901 (allosteric Mek inhibitor, Haoyuan Chemexpress Co., Limited. Barrett, et al., 2008) (FIGS. 14C and 14D), SB239063 (ATP-competitive p38 inhibitor, Haoyuan Chemexpress Co., Limited. Underwood et al., 2000) (FIGS. 14E and 14F), KIN001-040 (ATP-competitive JAK1,2,3 inhibitor, Haoyuan Chemexpress Co., Limited. Thompson et al., 2002) (FIG. 14G), and KIN001-208 (IKK inhibitor VIII, Haoyuan Chemexpress Co., Limited., Murata, et al., 2004) (FIG. 14H).
(§4) Cells were plated at 7500 cells/well in 96-well microscopy plates (Corning) in recommended media for 24 hours, and then starved in media lacking serum for 16 hours. Cells were pre-treated for 180 minutes with 10-fold stock solutions of JNK inhibitors and for 10 min with control compounds MK2206, PD0325901, SB239063, KIN040, and KIN208 and treated with 10-fold stock solutions of IGF-1, IL-6, TNF-α (all PeproTech), or anisomycin for 60 minutes. Cells were fixed in 2% paraformaldehyde for 10 min at room temperature and washed with PBS-T (Phosphate Buffered Saline, 0.1% Tween 20). Cells were permeabilized in methanol for 10 min at room temperature, washed with PBS-T, and blocked in Odyssey Blocking Buffer (LI-COR Biosciences) for 1 hour at room temperature. Cells were incubated overnight at 4° C. with antibody specific for Erk1/2(pT202/pY204), Akt(pS473), c-Jun(pS73), pP38(T180/Y182) and pSTAT3(Y705) (Cell Signaling Technology), pRSK1(S380) and pMSK1(S376) (Epitomics), and NF-κB (Santa Cruz Biotechnology) diluted 1:400 in Odyssey Blocking Buffer. Cells were washed three times in PBS-T and incubated with rabbit-specific secondary antibody labeled with Alexa Fluor 647 (Invitrogen) diluted 1:2000 in Odyssey Blocking Buffer. Cells were washed once in PBS-T and once in PBS and incubated in 250 ng/ml Hoechst 33342 (Invitrogen) and 1:1000 Whole Cell Stain (blue; Thermo Scientific) solution. Cells were washed twice with PBS and imaged in an imageWoRx high-throughput microscope (Applied Precision). Data were plotted using DataPflex. […]

In another experiment the test system is phosphorylation of Akt. Briefly: High-throughput microscopy, phosphorylation of Akt. Format: cell-based. Conditions: Homo sapiens, A-375, A375 cells, IGF-1 stimulation, read-out: Cellular EC50 pAkt. As for the experimental part:
as §3, §4

A further experiment deals with phosphorylation of Erk. Briefly: High-throughput microscopy, phosphorylation of Erk. Format: cell-based. The settings on record: Homo sapiens, A-375, A375 cells, anisomycin stimulation, read-out: Cellular EC50 pErk. As for the experimental part: as §3, §4
The subject of a further experiment is phosphorylation of Msk1. Briefly: High-throughput microscopy, phosphorylation of Msk1. Conditions: Homo sapiens, A-375, A375 cells, anisomycin stimulation, read-out: Cellular EC50 pMSK1. Format: cell-based. As to the method:
A375 cells were stimulated with anisomycin (FIGS. 14A and 14C to 14F), IGF-1 (FIG. 14B), IL-6 (FIG. 14G), and TNF-α (FIG. 14H) for sixty minutes.
as §2

Another experiment relates to phosphorylation of p38. Nature of the experiment: High-throughput microscopy, phosphorylation of p38. Format: cell-based. Conditions: Homo sapiens, A-375, A375 cells, anisomycin stimulation, read-out: Cellular EC50 pP38. As for the experimental part:
as §3, §4

Another experiment relates to phosphorylation of RSK. Nature of the experiment: High-throughput microscopy, phosphorylation of RSK. Format: cell-based. Conditions: Homo sapiens, A-375, A375 cells, anisomycin stimulation, read-out: Cellular EC50 pRSK. As for the experimental part:
as §3, §4

A further experiment deals with phosphorylation of STAT3. Briefly: High-throughput microscopy, phosphorylation of STAT3. Format: cell-based. Conditions: Homo sapiens, A-375, A375 cells, IL-6 stimulation, read-out: Cellular EC50 pSTAT3. As for the experimental part:
as §3, §4

The target in experiment [5] is additional kinase targets. Briefly: Follow-up enzymatic IC50 or Kd on potential additional kinase targets. Conditions: FIG. 12. An excerpt:
Scores were obtained from the profiling against a […] using Kinome Scan™ technology as illustrated in FIG. 11.
To complement the KiNativ profiling, the in vitro kinase selectivity of several key compounds was comprehensively evaluated by two complementary approaches: a kinase-binding assays against a panel of 442 distinct kinases using the KINOMEscan methodology (DiscoverX) and a standard radioactivity-based enzymatic assays against a panel of 124 kinases (The National Centre for Protein Kinase Profiling in Dundee). […] It was attempted to confirm all these potent binding targets using either an enzymatic kinase assay or through the measurement of a dissociation constant to the kinase in question.

Experiment [6] concerns panel of 442 distinct kinases. Briefly: KINOMEscan kinase-binding panel. The settings on record: concentration of 1.0 μM.

Chain of JNK3 (P53779 whole entry): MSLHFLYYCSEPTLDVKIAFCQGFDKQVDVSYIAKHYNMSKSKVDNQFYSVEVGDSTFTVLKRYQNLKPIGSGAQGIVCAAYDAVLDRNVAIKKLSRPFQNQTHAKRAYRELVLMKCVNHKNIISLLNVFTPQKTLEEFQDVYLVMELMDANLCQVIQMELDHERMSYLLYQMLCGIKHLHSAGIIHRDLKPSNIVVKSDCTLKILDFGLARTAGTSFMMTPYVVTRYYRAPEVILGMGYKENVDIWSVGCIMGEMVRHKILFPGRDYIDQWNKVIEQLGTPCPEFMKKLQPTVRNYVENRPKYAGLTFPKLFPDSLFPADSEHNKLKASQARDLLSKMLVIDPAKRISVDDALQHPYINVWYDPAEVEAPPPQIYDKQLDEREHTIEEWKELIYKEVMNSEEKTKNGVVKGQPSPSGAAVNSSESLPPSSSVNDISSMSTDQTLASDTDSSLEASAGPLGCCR

On JNK3 (Table 2), `CCC(=O)Nc1cccc(C(=O)Nc2ccc(Nc3nccc(-c4cccnc4)n3)cc2)c1` [JNK-IN-6] came in with an IC50 of 148 nM. Also, the “fold less potent biochemical IC50” value on JNK3 (on JNK1, 2, and 3, relative to JNK-IN-5) is recorded as approximately 100 fold. For the same molecule, the EC50 with c-Jun phosphorylation [1] stood at 6760 nM; in the experiment with c-Jun phosphorylation [2], 1900 nM. In addition, the “cellular IC50 fold higher than covalent analog JNK-IN-5” value in the experiment with c-Jun phosphorylation [1] (cellular c-Jun phosphorylation, relative to JNK-IN-5) is recorded as 50 fold. Further, in the experiment with JNK, the “protection of JNK from labeling by ATP-biotin” value is “incapable of protecting JNK from labeling by ATP-biotin; also recorded: no protection of JNK labeling”. The “KiNativ result for JNK after live cell treatment” value in [3] is reported as “did not inhibit JNK activity”.
As to `CN(C)C/C=C/C(=O)Nc1cccc(C(=O)Nc2ccc(Nc3nccc(-c4cccnc4)n3)cc2)c1` [JNK-IN-7], on JNK1, the IC50 was found to be 1.54 nM. Also, the EC50 in the experiment on c-Jun phosphorylation [1] is 130 nM; in [4], more than 10 µM; in the experiment with phosphorylation of Akt, more than 10 µM; with phosphorylation of Erk, more than 10 µM; in the experiment with phosphorylation of Msk1 it was more than 10 µM; with phosphorylation of p38, more than 10 µM. For the same molecule, the EC50 in the experiment on phosphorylation of RSK and with phosphorylation of STAT3 was more than 10 µM throughout. In [5], the “Kd or IC50 against eight additional kinases” value is not above 0.1 µM. In [6], the “number of kinases with binding inhibition of 95% or more” value is “approximately 14 kinases”.

Broadly, the IC50 is the midpoint of a concentration-inhibition curve. A high value points to a need for much substance. For orientation: EC50 means the concentration giving half of the maximal effect.
